Measurements published in US20110123483A1, “HMGB1 FOR CANCER TREATMENT” (DEUTSCHES KREBSFORSCHUNGSZENTRUM, priority 2009, published 2011).

Legend:
[1] = test system: U251MG cells; test: Megamitochondria formation, COX IV immunofluorescence and electron microscopy; type: cell-based, human
Description: U251MG cells were plated onto 8 well chamber-slides (Nunc, Wiesbaden, Germany) or grown confluently in 6 cm culture dishes containing round glass cover plates. For some samples, the cells were stained with the fluorescent dye MitoTracker Red CMXRos (50 nM, Molecular Probes, Invitrogen, Karlsruhe, Germany) for 30 min at 37° C. 24 h after seeding, the cells were fixed for 15 min with 2% paraformaldehyde solution or pre-cooled 100% methanol (on ice), washed 3× with PBS, permeabilized on ice with PBS containing 0.2% TritonX-100 and 1% fetal calf serum for 5 min and washed again three times with PBS containing 1% or 5% FCS. After blocking with PBS containing 1% or 5% FCS at room temperature for 60 min, permeabilized cells were incubated with monoclonal rabbit fluoro-conjugated anti-COX IV antibody (1:10, 3E11, Alexa Fluor 488 conjugate, Cell Signaling) or monoclonal mouse anti-polyhis-tag antibody (1:1000, R&D Systems) for 30 min at 4° C. and then washed three times with PBS with 1% or 5% FCS. In case the primary antibody was unconjugated to a fluorescent dye, goat anti-mouse or anti-rabbit secondary antibody Alexa Fluor® 488 or […] (1:200, Invitrogen GmbH, Karlsruhe, Germany) together with 1 μg/ml 4′,6-Diamidino-2-phenylindol (DAPI) was added for 30 min at 4° C. in a dark chamber. After washing three times with PBS with 1% or 5% FCS, cells were covered with cover slips. Photomicrographs were taken using a Olympus VANOX-T (AH-2) fluorescence microscope with immersion oil, ne 23=1.518 and the Soft Imaging System AnalysisB software (Leica Microsystems, Wetzlar, Germany) or on a confocal microscope (Leica SP2).
Cells were fixed in situ with 2.3% glutaraldehyde in 50 mM sodium cacodylat (pH 7.2) for 30 min at 4° C., scraped from the plates, collected by low-speed centrifugation at 200×g for 10 min at 4° C. and successively stained with 2% osmium tetroxide and 0.5% uranyl acetate. After dehydration and embedding in Epru the probes were processed for ultrathin section. Micrographs were taken with a Zeiss EM-10A electron microscope at 80 kV. The magnification indicator was routinely controlled by the use of a grating replica.

[2] = test system: U251MG glioma cells; test: Cell proliferation, counting in a Neubauer chamber; type: cell-based, human; settings: increasing concentrations, several days (FIG. 1A)
Description: 20,000 U251MG glioblastoma cells or human astrocytic cells (ScienCell) were plated into 96-well plates. After 24 h cells were treated with rhHMGB1 (Sigma Aldrich) or rat recombinant HMGB1 (generously provided by Angelika Bierhaus, Heidelberg, Germany), and TRAIL (for 24 h) or Temozolomide (for 72 h) alone or in combination, respectively. Cell survival was measured by crystal violet staining as described previously (Gdynia et al., 2007). Cell proliferation was assessed by seeding 50,000 U251 MG cells in 6 cm culture plates and treatment with rhHMGB1, followed by counting the cells in a Neubauer chamber at day 0, 2, 4 and 5.

[3] = test system: NCH421 K glioblastoma stem-cell-like cells; test: Cell morphology / spheroid cell aggregates; type: cell-based; settings: FIG. 12B
[4] = test system: U251MG glioblastoma cells; test: Cytotoxicity assay, cell survival by crystal violet staining; type: cell-based, human
Description: 20,000 U251MG glioblastoma cells or human astrocytic cells (ScienCell) were plated into 96-well plates. After 24 h cells were treated with rhHMGB1 (Sigma Aldrich) or rat recombinant HMGB1 (generously provided by Angelika Bierhaus, Heidelberg, Germany), and TRAIL (for 24 h) or Temozolomide (for 72 h) alone or in combination, respectively. […] Cell proliferation was assessed by seeding 50,000 U251 MG cells in 6 cm culture plates and treatment with rhHMGB1, followed by counting the cells in a Neubauer chamber at day 0, 2, 4 and 5.

[5] = test system: U251 MG cells; test: ROS measurement by DCF fluorescence and FACS analysis; type: cell-based, human; settings: 40 nM, 24 h (FIG. 3A)
Description: For measurement of reactive oxygen species (ROS) and mitochondrial membrane potential (MMP) 1.5×10^6 U251 MG cells were seeded in 6 cm plates, treated with 40 nM rhHMGB1 for 24 h and incubated with the fluorescent DiOC6 (3,3′-dihexyloxacarbocyanine iodide, 40 nmol/ll, Sigma Chemical Co., St. Louis, Mo.) or with the fluorescent H2DCF-DA (dichlorodihydrofluorescein diacetate, 10 μM, Invitrogen) for 1 h at 37° C., respectively. The cells were trypsinized and centrifuged at 2,000 rpm for 5 min at 4° C. The supernatant was discarded and the pellet was washed 2× with sterile Dulbecco's PBS containing 0.1% fetal calf serum on ice and again centrifuged at 2,000 rpm for 5 min at 4° C. The pellet was resuspended in 500 μl sterile Dulbecco's PBS on ice. Oxidation of H2DCF to DCF by ROS and DiOC6 accumulation in mitochondria were measured immediately at FL-1 by flow cytometry using a FACScalibur (Beckton Dickinson, Heidelberg, Germany). Cell cycle was determined by measurement of priopidiumiodide (PI)-uptake of the cells according to standard procedures. Briefly, the cells were harvested and washed twice in sterile Dulbecco's PBS on ice, spun down at 2,000 rpm for 5 min at 4° C. and fixed with 70% ethanol for 30 min at 4° C. Contaminating RNA was eliminated by treatment with 100 μg/ml of RNase A, then 50 μg/ml PI was added and DNA content was measured immediately at FI-2. […]

Substance: rhHMGB1: recombinant human High Mobility Group B1 protein (Sigma Aldrich)
- formation of megamitochondria, COX IV immunofluorescence ([1]; FIG. 8C): generation of extremely enlarged spherical mitochondria
- autophagosomes or rupture of the outer cell membrane, electron microscopy ([1]; FIG. 10): not observed
- number and size of megamitochondria, electron microscopy ([1]; FIG. 10): increased in a time- and concentration-dependent manner
- typical morphological features of apoptosis (membrane blebbing, apoptotic bodies, chromatin condensation) ([1]; after rhHMGB1 treatment): could not be detected
- induction of cell death [2]: induction of cell death even at low nanomolar concentrations
- tumor cell proliferation [2]: strong inhibition
- anti-proliferative effect, spheroid cell aggregates [3]: clearly smaller and fewer spheroid cell aggregates
- cell death, combined treatment with TRAIL ([4]; 4 nM rhHMGB1 and TRAIL, 24 h (FIG. 1C)): strong synergistic induction of cell death
- cell death, combined treatment with Temozolomide ([4]; 4 nM rhHMGB1 and temozolomide, 72 h (FIG. 1C)): strong synergistic induction of cell death
- cell death ([4]; 80 nM, after 48 h): substantial cell death
- susceptibility to rhHMGB1-induced cell death ([4]; 72 h (FIG. 1B)): susceptible
- generation of radical oxygen species (ROS) [5]: strong generation
